Measurements: US6528494B2 (priority 1996, dated 2003)
Counter-ions that a name gives are not always drawn.

Key:
[1] = system: lung eosinophil accumulation; assay: Antigen-induced lung eosinophil accumulation in sensitised guinea pigs; format: in vivo, guinea pig; details: airstream concentration; inhaled route, 30 min aerosol before ovalbumin challenge; lavage 24 h after challenge
Procedure: (2) Antigen-induced lung eosinophil accumulation in sensitised guinea pigs.
Ovalbumin sensitised guinea pigs were dosed with mepyramine (1 mg/kg ip) to protect against anaphylactic bronchospasm. A compound of the invention was then given by the inhaled route (30 min breathing of an aerosol of the compound) immediately prior to ovalbumin challenge (30 min breathing of an aerosol generated from a 50 ug/ml solution of ovalbumin). Twenty four hours after challenge, the guinea pigs were killed and the lungs lavaged. Total and differential leucocyte counts were then obtained for the bronchoalveolar lavage fluid and the dose of test compound giving a 50% reduction in eosinophil accumulation (ED50) was determined (Sanjar et al. 1992).

[2] = target: adenosine 2a receptor (Homo sapiens, UniProt P29274); assay: Agonist activity against adenosine 2a receptor (CHO cells, cAMP/SPAP reporter); format: cell-based; details: CHO cells transfected with human receptor; basal cAMP via SPAP; mean of all the versions tested
Chain of adenosine 2a receptor (P29274 whole entry): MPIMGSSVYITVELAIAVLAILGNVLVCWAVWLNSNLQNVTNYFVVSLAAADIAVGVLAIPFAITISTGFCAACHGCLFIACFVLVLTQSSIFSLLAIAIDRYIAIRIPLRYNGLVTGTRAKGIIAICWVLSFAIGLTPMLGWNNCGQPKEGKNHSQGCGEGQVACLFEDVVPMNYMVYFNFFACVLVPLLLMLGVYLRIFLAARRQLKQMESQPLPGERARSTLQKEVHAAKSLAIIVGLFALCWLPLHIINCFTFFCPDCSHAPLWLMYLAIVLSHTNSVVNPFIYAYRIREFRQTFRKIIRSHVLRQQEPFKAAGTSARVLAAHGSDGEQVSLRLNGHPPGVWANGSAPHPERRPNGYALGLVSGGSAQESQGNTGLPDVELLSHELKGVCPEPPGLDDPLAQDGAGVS
Procedure: (§1) (1) Agonist activity against adenosine 2a, adenosine 1 and adenosine 3 receptor subtypes.
(§2) The effect of test compounds was determined by their effects on basal levels of cAMP (A2a) or on forskolin-enhanced cAMP (A1 and A3) as reflected by changes in levels of SPAP.

[3] = target: T1, adenosine 3 receptor (Homo sapiens, UniProt P0DMS8); assay: Agonist activity against adenosine 3 receptor (CHO cells, forskolin-enhanced cAMP/SPAP reporter); format: cell-based; details: CHO cells transfected with human receptor; forskolin-enhanced cAMP via SPAP; mean of all the versions tested
T1 sequence (P0DMS8 1-318): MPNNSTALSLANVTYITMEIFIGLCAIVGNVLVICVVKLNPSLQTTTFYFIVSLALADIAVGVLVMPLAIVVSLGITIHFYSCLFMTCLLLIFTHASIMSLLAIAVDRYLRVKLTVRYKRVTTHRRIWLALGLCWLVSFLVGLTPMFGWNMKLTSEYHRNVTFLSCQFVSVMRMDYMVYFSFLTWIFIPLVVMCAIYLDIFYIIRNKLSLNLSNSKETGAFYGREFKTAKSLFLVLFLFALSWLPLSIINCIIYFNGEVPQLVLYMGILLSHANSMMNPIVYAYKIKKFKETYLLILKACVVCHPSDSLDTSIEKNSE
Procedure: as §1, §2

[4] = target: T2, adenosine 1 receptor (Homo sapiens, UniProt P30542); assay: Agonist activity against adenosine 1 receptor (CHO cells, forskolin-enhanced cAMP/SPAP reporter); format: cell-based; details: CHO cells transfected with human receptor; forskolin-enhanced cAMP via SPAP; mean of all the versions tested
T2 sequence (P30542 1-326): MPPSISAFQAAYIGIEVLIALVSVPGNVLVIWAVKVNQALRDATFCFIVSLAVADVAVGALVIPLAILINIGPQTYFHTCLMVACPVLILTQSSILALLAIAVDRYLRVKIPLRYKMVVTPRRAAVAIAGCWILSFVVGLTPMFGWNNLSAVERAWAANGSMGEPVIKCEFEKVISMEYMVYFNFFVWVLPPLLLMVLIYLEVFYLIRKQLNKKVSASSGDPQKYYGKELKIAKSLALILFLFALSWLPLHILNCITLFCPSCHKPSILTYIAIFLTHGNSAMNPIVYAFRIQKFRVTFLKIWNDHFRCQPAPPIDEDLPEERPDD
Procedure: as §1, §2

Compound	ED50 (50% reduction in eosinophil accumulation) [1]	A2a EC50 as a ratio of that of NECA [2]	A3 EC50 as a ratio of that of NECA [3]	A1 EC50 as a ratio of that of NECA [4]
CCn1nnc([C@H]2O[C@@H](n3cnc4c(N)nc(N[C@H](CO)Cc5ccccc5)nc43)[C@H](O)[C@@H]2O)n1.Cl [Example 11a, (2R,3R,4S,5R)-2-[6-Amino-2-(1S-hydroxymethyl-2-phenyl-ethylamino)-purin-9-yl]-5-(2-ethyl-2H-tetrazol-5-yl)-tetrahydro-furan-3,4-diol Hydrochloride]	6 µg/L	–	–	–
CCn1nnc([C@H]2O[C@@H](n3cnc4c(NCC(c5ccccc5)c5ccccc5)nc(N[C@H]5CC[C@H](N)CC5)nc43)[C@H](O)[C@@H]2O)n1.Cl.Cl (relative stereo) [Example 1a, rel-(2R,3R,4S,5R)-2-[2-(trans-4-Amino-cyclohexylamino)-6-(2,2-diphenyl-ethylamino)-purin-9-yl]-5-(2-ethyl-2H-tetrazol-5-yl)-tetrahydro-furan-3,4-diol Dihydrochloride]	6 µg/L	–	–	–
CCn1nnc(C2OC(n3cnc4c(NCc5ccccc5)nc(NC(CO)Cc5ccccc5)nc43)C(O)C2O)n1 [Example 61, (2R,3R,4S,5R)-2-[6-Benzylamino-2-(1S-hydroxymethyl-2-phenyl-ethylamino)-purin-9-yl]-5-(2-ethyl-2H-tetrazol-5-yl)-tetrahydro-furan-3,4-diol Formate]	–	9.20	>150	323.00
CCn1nnc([C@H]2O[C@@H](n3cnc4c(N)nc(NCCc5cn(C)cn5)nc43)[C@H](O)[C@@H]2O)n1.O=CO [Example 54, (2R,3R,4S,5R)-2-{6-Amino-2-[2-(1-methyl-1H-imidazol-4-yl)-ethylamino]-purin-9-yl}-5-(2-ethyl-2H-tetrazol-5-yl)-tetrahydro-furan-3,4-diol Formate]	–	1.16	>175	267.60
CCn1nnc(C2OC(n3cnc4c(NC5CCCC5)nc(NCCc5cn(C)cn5)nc43)C(O)C2O)n1 [Example 7, (2R,3R,4S,5R)-(2-{6-Cyclopentylamino-2-[2-(1-methyl-1H-imidazol-4-yl)-ethylamino]-purin-9-yl}-5-(2-ethyl-2H-tetrazol-5-yl)-tetrahydro-furan-3,4-diol Acetate]	–	0.12	>161	26.2
CCn1nnc(C2OC(n3cnc4c(NC(CO)Cc5ccccc5)nc(NC5CCNC5)nc43)C(O)C2O)n1 [Example 62, (2R,3S,4R,5R)-2-(2-Ethyl-2H-tetrazol-5-yl)-5-[6-(1S-hydroxymethyl-2-phenyl-ethylamino)-2-(pyrrolidin-3R-ylamino)-purin-9-yl]-tetrahydro-furan-3,4-diol bis(Formate)]	–	2.29	>295	21.10
Cn1nnc(C2OC(n3cnc4c(NCc5cccc(I)c5)nc(NCCN5CCCCC5)nc43)C(O)C2O)n1 [Example 106, (2R,3R,4S,5R)-2-[6-(3-lodo-benzylamino)-2-(2-piperidin-1-yl-ethylamino)-purin-9-yl]-5-(2-methyl-2H-tetrazol-5-yl)-tetrahydro-furan-3,4-diol bis(Formate)]	–	1.12	>201	100.30
CCn1nnc(C2OC(n3cnc4c(NC5CCCC5)nc(NCCN5CCCCC5)nc43)C(O)C2O)n1.O=CO.O=CO [Example 104, (2R,3R,4S,5R)-2-[6-Cyclopentylamino-2-(2-piperidin-1-yl-ethylamino)-purin-9-yl]-5-(2-ethyl-2H-tetrazol-5-yl)-tetrahydro-furan-3,4-diol bis(Formate)]	–	4.04	>235	113.40
CC(C)n1nnc([C@H]2O[C@@H](n3cnc4c(NCCc5ccccc5)nc(NCCc5cn(C)cn5)nc43)[C@H](O)[C@@H]2O)n1.O=CO [Example 57, (2R,3S,4R,5R)-2-(2-Isopropyl-2H-tetrazol-5-yl)-5-{2-[2-(1-methyl-1H-imidazol-4-yl)-ethylamino]-6-phenethylamino-purin-9-yl}-tetrahydro-furan-3,4-diol Formate]	–	2.42	>362	376.10
Cn1nnc(C2OC(n3cnc4c(NCc5cccc(I)c5)nc(NC(CO)Cc5ccccc5)nc43)C(O)C2O)n1 [Example 109, (2R,3R,4S,5R)-2-[2-(1S-Hydroxymethyl-2-phenyl-ethylamino)-6-(3-iodo-benzylamino)-purin-9-yl]-5-(2-methyl-2H-tetrazol-5-yl)-tetrahydro-furan-3,4-diol Formate]	–	8.54	>446	17.70
CCC(CC)Nc1nc(NCCc2cn(C)cn2)nc2c1ncn2[C@@H]1O[C@H](c2nnn(C)n2)[C@@H](O)[C@H]1O.O=CO [Example 33, (2R,3R,4S,5R)-2-{6-(1-Ethyl-propylamino)-2-[2-(1-methyl-1H-imidazol-4-yl)-ethylamino]-purin-9-yl}-5-(2-methyl-2H-tetrazol-5-yl)-tetrahydro-furan-3,4-diol Formate]	–	0.16	>172	>4045
CC(C)C(CO)Nc1nc(NCC(c2ccccc2)c2ccccc2)c2ncn(C3OC(c4nnn(C)n4)C(O)C3O)c2n1 [Example 99, (2R,3R,4S,5R)-2-[6-(2,2-Diphenyl-ethylamino)-2-(1S-hydroxymethyl-2-methyl-propylamino)-purin-9-yl]-5-(2-methyl-2H-tetrazol-5-yl)-tetrahydro-furan-3,4-diol Formate]	–	4.82	>130	87.00
